Source: the supplement of paper PMC11061612

Tests used:
[1] = test system: NCI-H1963 (Small Cell Lung Carcinoma); assay: Bliss excess, mean over the matrix (fraction); higher = more synergy
Procedure, shortened: (§1)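 Cell lines in DMEM/F12 or RPMI with 10% FBS were plated in 1536-well plates, held 24 hours at 37°C, 5% CO2, then given two-drug dose matrices for 72 hours (DMSO typically 0.2%). Viability was read by CellTiter-Glo 2.0 luminescence and scaled as inhibition from 0 (vehicle wells) to 1 (blank wells). Combination Emax is the second-highest inhibition in the matrix; Bliss excess is observed combination effect minus expected EA + EB − EA·EB, EA and EB being single-agent effects.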

[2] = test system: SNU-407 (Colorectal Carcinoma); assay: as above
Procedure, shortened: as §1

[3] = test system: RCC-JW (Kidney Carcinoma); assay: as above
Procedure, shortened: as §1

[4] = test system: P32-ISH (Burkitt's Lymphoma); assay: as above
Procedure, shortened: as §1

[5] = test system: P30-OHK (B-Lymphoblastic Leukemia); assay: as above
Procedure, shortened: as §1

[6] = test system: SCC-4 (Oral Cavity Carcinoma); assay: as above
Procedure, shortened: as §1

[7] = test system: LS-1034 (Colorectal Carcinoma); assay: as above
Procedure, shortened: as §1

[8] = test system: MOLP-8 (Plasma Cell Myeloma); assay: as above
Procedure, shortened: as §1

GAK (Melanoma) = assay: as above
Procedure, shortened: as §1

[9] = test system: OAW-28 (Ovarian Carcinoma); assay: as above
Procedure, shortened: as §1

[10] = test system: NMC-G1 (Low Grade Glioma); assay: as above
Procedure, shortened: as §1

[11] = test system: COR-L88 (Small Cell Lung Carcinoma); assay: as above
Procedure, shortened: as §1

[12] = test system: BxPC-3 (Pancreatic Carcinoma); assay: as above
Procedure, shortened: as §1

[13] = test system: MM1S (Plasma Cell Myeloma); assay: as above
Procedure, shortened: as §1

[14] = test system: NAMALWA (Burkitt's Lymphoma); assay: as above
Procedure, shortened: as §1

[15] = test system: SiHa (Cervical Carcinoma); assay: as above
Procedure, shortened: as §1

[16] = test system: ZR-75-30 (Breast Carcinoma); assay: as above
Procedure, shortened: as §1

[17] = test system: NCI-H1341 (Small Cell Lung Carcinoma); assay: combination Emax (second highest fraction inhibited in the dose matrix, 72 h); higher = more inhibition; extreme values may be limits of the assay
Procedure, shortened: as §1

[18] = test system: IA-LM (Non-Small Cell Lung Carcinoma); assay: as above
Procedure, shortened: as §1

[19] = test system: TUR (Acute Myeloid Leukemia); assay: as above
Procedure, shortened: as §1
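For Bliss excess, mean over the matrix in this document: after 72 h of two-drug dosing.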

With `CC1(C)CCC(CN2CCN(c3ccc(C(=O)NS(=O)(=O)c4ccc(NCC5CCOCC5)c([N+](=O)[O-])c4)c(Oc4cnc5[nH]ccc5c4)c3)CC2)=C(c2ccc(Cl)cc2)C1` [Venetoclax] + COc1cc(Nc2ncc3c(n2)-c2ccc(Cl)cc2C(c2c(F)cccc2OC)=NC3)ccc1C(=O)O [Alisertib] (first compound max 1 µM, 7x7, partner max 10 µM) the Bliss excess [1] was 0.0303, the Bliss excess [2] was -0.0296 and the Bliss excess [3] was -0.0415. For the same compound, the Bliss excess [4] was -0.0078, the Bliss excess [5] was 0.178 and the Bliss excess [6] was 0.0421. For the same compound, the Bliss excess [7] was -0.0252, the Bliss excess [8] was 0.141 and the Bliss excess (GAK (Melanoma)) was -0.0359. It also gave a Bliss excess [9] of 0.0736, a Bliss excess [10] of -0.0125 and a Bliss excess [11] of 0.11. The Bliss excess [12] was -0.0291, the Bliss excess [13] was 0.078 and the Bliss excess [14] was -0.0072. For the same compound, the Bliss excess [15] was -0.0669, the Bliss excess [16] was -0.0603 and the “combination Emax” value [17] was 0.968. The “combination Emax” value [18] was 0.617 and the “combination Emax” value [19] was 0.628.

Work on `CC1(C)CCC(CN2CCN(c3ccc(C(=O)NS(=O)(=O)c4ccc(NCC5CCOCC5)c([N+](=O)[O-])c4)c(Oc4cnc5[nH]ccc5c4)c3)CC2)=C(c2ccc(Cl)cc2)C1` [Venetoclax] + C[C@@H]1COCCN1C2=NC(=NC(=C2)C3(CC3)[S@](=N)(=O)C)C4=C5C=CNC5=NC=C4 [AZD6738] (first compound max 1 µM, 7x7, partner max 10 µM) yielded a Bliss excess [1] of 0.0004, a Bliss excess [2] of -0.0138 and a Bliss excess [3] of -0.0484. For the same compound, the Bliss excess [4] was 0.0365, the Bliss excess [5] was 0.154 and the Bliss excess [6] was -0.134. The Bliss excess [7] was -0.0255, the Bliss excess [8] was -0.0193 and the Bliss excess (GAK (Melanoma)) was -0.0586. For the same compound, the Bliss excess [9] was -0.0216, the Bliss excess [10] was -0.0032 and the Bliss excess [11] was 0.0109. For the same compound, the Bliss excess [12] was 0.0101, the Bliss excess [13] was 0.0444 and the Bliss excess [14] was -0.0029. For the same compound, the Bliss excess [15] was -0.0036, the Bliss excess [16] was -0.0359 and the “combination Emax” value [17] was 0.757. The “combination Emax” value [18] was 0.435 and the “combination Emax” value [19] was 0.963.

`CC1(C)CCC(CN2CCN(c3ccc(C(=O)NS(=O)(=O)c4ccc(NCC5CCOCC5)c([N+](=O)[O-])c4)c(Oc4cnc5[nH]ccc5c4)c3)CC2)=C(c2ccc(Cl)cc2)C1` [Venetoclax] + C[C@@H](Nc1cc(F)cc(F)c1)c1cc(C(=O)N(C)C)cc2c(=O)cc(N3CCOCC3)oc12 [AZD8186] (first compound max 1 µM, 7x7, partner max 3 µM) was tested, and the Bliss excess [1] was 0.21, the Bliss excess [2] was -0.0471 and the Bliss excess [3] was 0.0135. For the same compound, the Bliss excess [4] was 0.0385, the Bliss excess [5] was 0.149 and the Bliss excess [6] was -0.119. The Bliss excess [7] was -0.0318, the Bliss excess [8] was 0.0293 and the Bliss excess (GAK (Melanoma)) was -0.0325. For the same compound, the Bliss excess [9] was 0.0551, the Bliss excess [10] was -0.0256 and the Bliss excess [11] was 0.0393. It also gave a Bliss excess [12] of -0.0115, a Bliss excess [13] of 0.0377 and a Bliss excess [14] of 0.0287. The Bliss excess [15] was 0.0009, the Bliss excess [16] was -0.0201 and the “combination Emax” value [17] was 0.583. For the same compound, the “combination Emax” value [18] was 0.0865 and the “combination Emax” value [19] was 0.209.

With `CC1(C)CCC(CN2CCN(c3ccc(C(=O)NS(=O)(=O)c4ccc(NCC5CCOCC5)c([N+](=O)[O-])c4)c(Oc4cnc5[nH]ccc5c4)c3)CC2)=C(c2ccc(Cl)cc2)C1` [Venetoclax] + Cc1cc2ncnn2cc1Nc1ncc2c(n1)n(C1CCOCC1)c(=O)n2C [AZD7648] (first compound max 1 µM, 7x7, partner max 10 µM) the Bliss excess [1] was 0.109, the Bliss excess [2] was 0.0174 and the Bliss excess [3] was -0.0431. It also gave a Bliss excess [4] of -0.0154, a Bliss excess [5] of 0.0584 and a Bliss excess [6] of -0.0674. For the same compound, the Bliss excess [7] was -0.0323, the Bliss excess [8] was 0.0222 and the Bliss excess (GAK (Melanoma)) was -0.0209. For the same compound, the Bliss excess [9] was 0.0005, the Bliss excess [10] was -0.0508 and the Bliss excess [11] was -0.0121. For the same compound, the Bliss excess [12] was -0.0374, the Bliss excess [13] was 0.0556 and the Bliss excess [14] was -0.0246. For the same compound, the Bliss excess [15] was -0.0549, the Bliss excess [16] was -0.0381 and the “combination Emax” value [17] was 0.444. For the same compound, the “combination Emax” value [18] was 0.261 and the “combination Emax” value [19] was 0.102.

`CC1(C)CCC(CN2CCN(c3ccc(C(=O)NS(=O)(=O)c4ccc(NCC5CCOCC5)c([N+](=O)[O-])c4)c(Oc4cnc5[nH]ccc5c4)c3)CC2)=C(c2ccc(Cl)cc2)C1` [Venetoclax] + Cn1cnc2c(F)c(Nc3ccc(Br)cc3Cl)c(C(=O)NOCCO)cc21 [Selumetinib] (first compound max 1 µM, 7x7, partner max 3 µM) gave a Bliss excess [1] of 0.0788, a Bliss excess [2] of -0.0275 and a Bliss excess [3] of -0.0396. It also gave a Bliss excess [4] of 0.0152, a Bliss excess [5] of 0.036 and a Bliss excess [6] of -0.0931. It also gave a Bliss excess [7] of -0.0644, a Bliss excess [8] of -0.0737 and a Bliss excess (GAK (Melanoma)) of 0.0238. For the same compound, the Bliss excess [9] was 0.0047, the Bliss excess [10] was -0.0531 and the Bliss excess [11] was 0.0341. For the same compound, the Bliss excess [12] was 0.0009, the Bliss excess [13] was 0.0456 and the Bliss excess [14] was 0.0019. The Bliss excess [15] was -0.0516, the Bliss excess [16] was -0.034 and the “combination Emax” value [17] was 0.432. For the same compound, the “combination Emax” value [18] was 0.175 and the “combination Emax” value [19] was 0.179.
